Where two headings read alike, the source gives them in different places.

The test system of one assay is MCF7. The experiment in a line: Anti-proliferative MTT assay, MCF7. The settings on record: Homo sapiens. Format: cell-based. Here is the method:
The effect of ASM-024 on the growth of MCF7, SK-BR-3, MDA-MB-231, BT-474 (mammary adenocarcinomas), SK-OV/3 (ovary adenocarcinoma), PC3 (prostate adenocarcinoma) SK-MEL-28(skin melanoma) and C6 (tumor cell glioma) was evaluated. Cells were cultured in RPMI medium and incubated with different concentrations of ASM-024. Cell proliferation was measured on days 3 and 6 by the MTT colorimetric assay. Absorbance at 576-690 nm was analyzed with a microplate reader and expressed as optical density (OD) and as a percentage of the value of corresponding untreated cells. The IC50 was determined as the drug concentration required to inhibit cell growth by 50% from a plot of percent cell viability from control untreated cells versus treated cells.
In general terms: Tetrazolium dyes change colour on reduction, which living cells bring about.

A further assay relates to A549 cells. The experiment in a line: In vivo antitumor assay, A549 tumor cell-bearing nu/nu mice (Example 27). The following applies: 30 mg/kg daily, subcutaneous or intraperitoneal. Here is the method: For the in vivo antitumor assay, nu/nu mice were inoculated subcutaneously in the flank of mice with 2×10^6 A549 cells in sterile PBS mixed with 50% matrigel. Two days later ASM-024 was administered daily by subcutaneous (at a site close to the tumor) or intraperitoneal delivery at the dose of 30 mg/kg for up to 50 days. When palpable, tumor length and width were measured with a caliper and tumor volume calculated according to the formula Volume=(width2×length)/2.
FIGS. 6A, 6B, 7A and 7B are illustrating the antitumor effect of ASM-024 in A549 tumor cell-bearing mice after 51 days. The antitumor effect of each delivery mode was evaluated by measuring tumor volume (FIGS. 6A and 6B) and weight (FIGS. 7A and 7B). Values are presented as the mean±standard deviation.

For `CC[N+]1(CC)CCCN(c2ccccc2)CC1.Cc1ccc(S(=O)(=O)[O-])cc1` [ASM-024, 1,1-Diethyl-4-phenyl-homopiperazinium Tosylate], the IC50 (in general, the concentration that inhibits the measured activity by half) turned out to be 470 ± 364 µM with MCF7 (72 h, MCF7, day 3, read-out: IC50 Day 3) and 209 ± 42 µM in the assay on MCF7 (144 h, MCF7, day 6, read-out: IC50 Day 6). In the assay on A549 cells (51 days of observation, vs control mice), the “Tumor growth, as determined by mean tumor volumes” value was “reduced”. The “Mean tumor weight after surgical resection” value in the assay with A549 cells (after 51 days, vs vehicle-treated control mice) was “reduction in tumor mass”.

(Values after patent publication US10507212B2, “Method for use of homopiperazinium compounds in the treatment of cancer” (UNIVERSITÉ LAVAL, priority 2014, dated 2019).)
